Data on 30 compounds can be found in PubChem BioAssay (NCI).

Each structure is given as a SMILES string. “And” between values parts separate entries of the source, which are not always exact repeats. Equal values may be shown once.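 The compound was tested at five concentrations on cells cultured in 96-well plates, with a 48-hour exposure period. GI50 is the concentration that inhibits growth by half. TGI denotes the concentration required for complete inhibition of growth.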

Among the test systems are DMS 273 small cell lung; SNB-78 CNS; HOP-18 NSCLC; LXFL 529 NSCLC; T-47D breast; XF 498 CNS; KM20L2 colon; MDA-N.
Common to all, as to assay: DTP human tumour cell line panel, 48 h

With `COc1c(C(=O)O)oc2c(OC)cccc12`, the concentration for total growth inhibition (TGI) in the assay on DMS 273 small cell lung, with SNB-78 CNS, in the assay with HOP-18 NSCLC and with LXFL 529 NSCLC was greater than 100 µM each time.
For `COc1ccc(-c2cc(/C=C3\C(=O)Nc4ccc(Cl)cc43)[nH]n2)cc1`, in the assay on T-47D breast, the GI50 (usually the concentration that inhibits growth by half) was 3620 nM and the total growth inhibition concentration (TGI) – broadly, the concentration at which net growth stops – was 14.6 µM.
Turning to `C=C1C(=O)O[C@H]2[C@H]1CC/C(COC(=O)NCc1ccc(Cn3c(=O)sn(CCCCl)c3=O)cc1)=C\CC[C@@]1(C)O[C@@H]21`, in the assay with T-47D breast, the GI50 was 1970 nM and the total growth inhibition concentration (TGI) was 5.58 µM.
For the compound `COc1ccc2c(c1OC)C1=C(C2=O)c2cc3c(cc2CCN1)OCO3`, the concentration for total growth inhibition (TGI) with XF 498 CNS was 87.2 µM; in the assay on DMS 273 small cell lung, 52.9 µM; with KM20L2 colon, 41 µM; with SNB-78 CNS, greater than 100 µM; with HOP-18 NSCLC, greater than 100 µM; in the assay with LXFL 529 NSCLC, greater than 100 µM.
With `Cc1c(C(=O)c2ccccc2C(=O)O)c2ccccc2n1C`, the TGI in the assay on XF 498 CNS, in the assay on DMS 273 small cell lung, in the assay with KM20L2 colon, with SNB-78 CNS and with LXFL 529 NSCLC was greater than 100 µM in each case.
Take `CC1(C)OC(=O)C=C([O-])O1.CC1(C)OC(=O)C=C([O-])O1.O=S(=O)([O-])c1ccc([O-])c2ncccc12.O=S(=O)([O-])c1ccc([O-])c2ncccc12.[Ti+4]`: the GI50 is greater than 100 µM with DMS 273 small cell lung; 43.3 µM with KM20L2 colon; greater than 100 µM with SNB-78 CNS; 26 µM with HOP-18 NSCLC; 67.1 µM in the assay with LXFL 529 NSCLC. Further, the TGI in the assay with DMS 273 small cell lung, in the assay with KM20L2 colon, in the assay on SNB-78 CNS, in the assay on HOP-18 NSCLC and with LXFL 529 NSCLC was greater than 100 µM throughout.
Consider `COc1ccc(/C=C/c2nc(NCCCN(C)C)c3ccccc3n2)cc1`, for which, in the assay on T-47D breast, the GI50 is 1810 nM and the total growth inhibition concentration (TGI) is 3.61 µM.
Consider `COCCOC(=O)NC(=O)Nc1ccc(/C(=N/O)c2ccc(Cl)cc2)cc1`, for which, in the assay with T-47D breast, the GI50 is 8820 nM and the concentration for total growth inhibition (TGI) was found to be 50.5 µM.
Regarding `CN1CCCN(C)C1c1cc([N+](=O)[O-])ccc1O`, the TGI with MDA-N and in the assay with T-47D breast was greater than 100 µM throughout.
For `CC(C)(C)NCc1cc(C(C)(C)C)cc(-c2ccc(Cl)cc2)c1O`, the concentration for total growth inhibition (TGI) in the assay with MDA-N was determined as 31.4 µM.
As for `N=c1nnc(=O)c2c(s1)-n1ncc(C(=O)O)c1NN2`, the TGI in the assay on KM20L2 colon, in the assay on HOP-18 NSCLC and in the assay on LXFL 529 NSCLC was greater than 100 µM in each case.
Turning to `CO/C1=C\C(C)=C\C(C)C(O)C(C)C/C(C)=C/C=C/C(OC)C(C(C)C(O)C(C)C2(O)CC(O)C(C)C(C(C)C)O2)OC1=O` (centres undefined), the GI50 in the assay with XF 498 CNS is 12.2 nM. Moreover, the TGI was 0.0849 µM and 0.0294 µM in the assay on XF 498 CNS; 0.0107 µM and 0.0233 µM with DMS 273 small cell lung; 25 µM with SNB-78 CNS; 21.9 µM in the assay on HOP-18 NSCLC.
`CC(=O)O[C@H]1CC[C@@]2(C)C(=CC[C@H]3C4=CC=C(C(C)=O)[C@@]4(C)CCC32)C1` (some centres undefined): the TGI with DMS 273 small cell lung, in the assay on KM20L2 colon, in the assay on SNB-78 CNS, in the assay with HOP-18 NSCLC and in the assay with LXFL 529 NSCLC was greater than 100 µM each time.
Turning to `CN(CN1C(=O)C2Cc3ccccc3CN2C1=O)c1ccccn1` (centres undefined), the TGI with XF 498 CNS, in the assay with DMS 273 small cell lung, in the assay on KM20L2 colon and with LXFL 529 NSCLC was greater than 100 µM throughout.
For the compound `CCCCCCCCCCN(CCCCCCCCCC)CC(=O)c1ccc2cc(Br)c3ccccc3c2c1`, in the assay on T-47D breast, the GI50 was 2440 nM and the TGI turned out to be 5.98 µM.
Consider `O=C(Nc1ccc(F)cc1)c1c(NC(=O)C(F)(F)F)sc2c1CCCCC2`, for which, in the assay with T-47D breast, the GI50 was 1620 nM and the TGI was found to be 5.61 µM.
In the case of `COc1ccc(C(N)=O)cc1N=NN(C)C`, the total growth inhibition concentration (TGI) with DMS 273 small cell lung, with KM20L2 colon, with HOP-18 NSCLC and in the assay with LXFL 529 NSCLC was greater than 100 µM throughout.
With `O=c1[nH]c(=O)n(C2OC(CO)C(O)C2O)c2c1CCCC2` (centres undefined), the concentration for total growth inhibition (TGI) in the assay with MDA-N and in the assay on T-47D breast was greater than 100 µM in each case.
For the compound `Cn1c(=O)c(Oc2ccccc2F)cc2cnc(NC3CCOCC3)nc21`, in the assay with T-47D breast, the GI50 was greater than 25000 nM and the total growth inhibition concentration (TGI) was greater than 25 µM.
As to `Cc1c(C(=O)NCCO)[n+](=O)c2cc(Cl)ccc2n1[O-]`, the TGI with DMS 273 small cell lung, with KM20L2 colon, in the assay with SNB-78 CNS, with HOP-18 NSCLC and in the assay with LXFL 529 NSCLC was greater than 100 µM throughout.
Take `C[C@]1(CO)[C@H]2CC[C@@]34C=C[C@@](CO)(CC[C@H]3[C@]2(C)CC[C@H]1O)C4`: the TGI is greater than 100 µM with MDA-N and 84.3 µM with T-47D breast.
Regarding `COc1cc2c3c(n(CCCNCCN)c(=O)c2cc1OC)-c1cc2c(cc1C3=O)OCO2`, in the assay on T-47D breast, the GI50 is greater than 100000 nM and the TGI is greater than 100 µM.
For the compound `O=C(c1ccc2ncc(-c3nc(NC4CC4)ncc3F)n2c1)N1CCOCC1`, in the assay with T-47D breast, the GI50 was 2000 nM and the concentration for total growth inhibition (TGI) was determined as 7.49 µM.
Turning to `N#Cc1cnc2cc(OC[C@@H](O)CO)c(NC(=O)CC3CSSC3)cc2c1Nc1ccc(OCc2cccc(F)c2)c(Cl)c1`, in the assay with T-47D breast, the GI50 is 646 nM and the concentration for total growth inhibition (TGI) is 1.59 µM.
Consider `Nc1ccc(S(=O)(=O)C23CC4CC(CC(C4)C2)C3)cc1`, for which the total growth inhibition concentration (TGI) in the assay on T-47D breast is greater than 100 µM.
For the compound `CCN1C(=S)N(CC)C2C1NC(=S)N2/N=C/C=C/c1ccccc1` (centres undefined), in the assay with T-47D breast, the GI50 was 3550 nM and the TGI amounted to 18.2 µM.
For the compound `Clc1ccc2[nH]cc(-c3nc(-c4c[nH]c5ncccc45)cs3)c2c1`, in the assay with T-47D breast, the GI50 is 4880 nM and the concentration for total growth inhibition (TGI) was 33.7 µM.
On the same counts, the results for `O=C(NCCCNc1cc(-c2cn(-c3ccccc3)nc2-c2cccc(O)c2)ccn1)c1ccccc1` are 1570 nM and 6.89 µM.
For the compound `CCOc1cc2c(NCCCN(CCO)CCO)ncnc2c(OCC)c1OCC`, the TGI with MDA-N and in the assay with T-47D breast was greater than 100 µM throughout.
For `COC(=O)c1c2c(c(C)[n+]([O-])c1C)C(=O)C=C(NCc1ccc(F)c(F)c1)C2=O`, in the assay with T-47D breast, the GI50 is 127 nM and the concentration for total growth inhibition (TGI) is 1.02 µM.
